Test results as given in publication PMC10233092, “Selective Janus kinase 1 inhibition resolves inflammation and restores hair growth offering a viable treatment option for alopecia areata” (Skin Health and Disease, 2023).
≈ marks a conversion by molar mass, not a printed value. Where “and” joins values, the source holds several entries; their conditions need not be identical. Identical values can stand only once.

Columns and labels:
LogD7.4 = type: physicochemical; conditions: pH 7.4
Excerpt: TABLE 2 In vitro and in vivo DMPK properties of Cmpd A, B & C | column: In vitro mouse & physical chemical properties / LogD7.4

IL‐4, STAT6‐Luc = assay: IL-4-induced JAK-STAT6-luciferase assay in U937 monocytes; type: cell-based; conditions: Homo sapiens, U-937, interleukin at EC80
[1] = test system: C3H/HeJ mouse model of AA; assay: Taqman gene expression in mouse skin; type: in vivo; conditions: Mean±SEM
Experimental: RNA was prepared according to a standard phenol‐chloroform total RNA extraction method where skin samples were homogenized in QIAzol® Lysis Reagent (QIAGEN Sciences, Maryland 20847, USA), added chloroform, vortexed and centrifuged for phase separation. The RNA containing phase was ethanol precipitated and purified on an Applied Biosystems 6100 Nucleic Acid Prep Station. RNA integrity was measured on the Fragment Analyzer platform (AATI, IA, USA) using standard sensitivity RNA analysis kit.
cDNA was synthesized from mouse skin RNA using the High Capacity cDNA Reverse Transcription Kit from Life Technologies. Gene expression was performed on the QuantStudio™ 7 Flex Real‐Time PCR System (Applied Biosystems, Foster City, CA, USA) using custom made TaqMan® Array Micro Fluidic Cards. Results were analyzed with the QuantStudio™ 7 Flex Real‐Time PCR System software. Detailed description in Supplementary materials.
RNA extraction: Frozen 20 mg skin biopsies were transferred to 2 mL eppendorf tubes placed on dry ice, added 5 stainless steel beads of 3 mm ø and 750 μL cold QIAzol® Lysis Reagent (QIAGEN Sciences, Maryland 20847, USA). The samples were mounted on a Mixer Mill Tissue Lyser (Retsch GmbH, Haan, Germany) and homogenized for 2 x 5 minutes at 30 Hz, then centrifuged for 1 minute at 6000g, added 150 μL CHCl3, vigorously shaken for 15 seconds and incubated for 3 minutes. After 15 minutes centrifugation at 6000g the aqueous RNA containing phase was transferred to a 96 deep well plate and mixed with an equal volume of 70 % Ethanol. The RNA-Ethanol precipitate was purified and DNase treated on a 6100 Nucleic Acid Prep Station (Applied Biosystems, Foster City, CA, USA). Total RNA was eluted in 100 μL Elution Buffer (Applied Biosystems, Foster City, CA, USA) and the concentrations were measured on the NanoDrop ND-1000 Spectrophotometer (Thermo Fischer Scientific, Wilmington, DE, USA) at 260 nm.
cDNA synthesis: cDNA synthesis was performed using the High Capacity cDNA Reverse Transcription Kit from Life Technologies (Applied Biosystems, Foster City, CA, USA) according to the manufacturer´s instructions. The cDNA samples were diluted with RNase free water to 100 ng/µL, in a later (experiment) to 200 ng/µL.
The gene expression results are shown as log2 Fold Change. With the calibrator group close to zero, up- or down regulation of the target genes are visualized as positive or negative values, making it easier to assess the size of, in particular, the down regulations.

[2] = Solubility in phosphate buffer; type: physicochemical; conditions: pH 7.4, aqueous buffer
Excerpt: TABLE 1 In vitro potency and selectivity of JAK inhibitors | column: Solubility (μM) ^c

[3] = Plasma protein binding by equilibrium dialysis; type: in vitro ADME; conditions: mouse plasma
Excerpt: (§1) Detailed description in Supplementary materials.

JAK2 = JAK2 (Homo sapiens, UniProt O60674); assay: JAK2 kinase inhibition, Calliper assay; type: biochemical; conditions: physiological ATP concentration of 5 mM
Sequence of JAK2 (O60674 whole entry, species assumed): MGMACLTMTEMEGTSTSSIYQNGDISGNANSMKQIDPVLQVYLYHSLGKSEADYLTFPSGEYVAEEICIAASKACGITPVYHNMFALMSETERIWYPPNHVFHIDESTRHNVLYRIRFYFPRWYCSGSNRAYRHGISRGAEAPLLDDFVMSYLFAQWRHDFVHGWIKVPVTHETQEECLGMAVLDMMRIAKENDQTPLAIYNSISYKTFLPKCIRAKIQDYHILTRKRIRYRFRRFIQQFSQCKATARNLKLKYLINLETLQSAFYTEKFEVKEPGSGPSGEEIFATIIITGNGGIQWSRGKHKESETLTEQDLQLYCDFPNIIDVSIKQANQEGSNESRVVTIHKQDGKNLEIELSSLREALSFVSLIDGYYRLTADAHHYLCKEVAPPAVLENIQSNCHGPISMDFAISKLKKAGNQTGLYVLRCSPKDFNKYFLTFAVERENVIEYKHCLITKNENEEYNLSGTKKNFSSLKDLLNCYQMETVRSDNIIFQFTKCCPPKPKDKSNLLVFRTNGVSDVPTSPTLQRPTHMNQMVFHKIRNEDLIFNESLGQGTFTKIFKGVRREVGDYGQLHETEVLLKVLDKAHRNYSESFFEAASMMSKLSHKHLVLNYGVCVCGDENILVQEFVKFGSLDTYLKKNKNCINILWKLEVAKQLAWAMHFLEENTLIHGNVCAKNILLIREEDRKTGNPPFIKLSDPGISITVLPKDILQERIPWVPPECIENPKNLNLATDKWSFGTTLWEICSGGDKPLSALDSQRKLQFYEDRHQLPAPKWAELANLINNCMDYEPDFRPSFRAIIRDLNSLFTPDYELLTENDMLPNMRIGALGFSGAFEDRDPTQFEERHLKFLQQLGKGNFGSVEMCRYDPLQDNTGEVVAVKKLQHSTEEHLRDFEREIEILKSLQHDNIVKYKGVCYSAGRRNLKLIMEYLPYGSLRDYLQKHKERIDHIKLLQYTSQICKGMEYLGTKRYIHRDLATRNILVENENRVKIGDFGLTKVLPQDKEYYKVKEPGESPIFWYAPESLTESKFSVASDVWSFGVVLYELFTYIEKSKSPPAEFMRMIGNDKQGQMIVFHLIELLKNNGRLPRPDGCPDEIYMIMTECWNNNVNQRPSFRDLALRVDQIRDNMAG

[4] = Caco permeability and efflux; type: in vitro ADME; conditions: human, Caco-2; for efflux ratio: Efflux ratio = BtA/AtB; for Papp A→B: read-out: Caco AtB
Excerpt: TABLE 2 In vitro and in vivo DMPK properties of Cmpd A, B & C | column: In vitro mouse & physical chemical properties / Caco AtB 10^−6 cm/s/Efflux ratio ^b

[5] = Plasma and skin exposure in treated AA mice; conditions: AA mice
[6] = test system: C3H/HeJ mouse model of AA; assay: Skin histopathology and hair follicle analysis in AA mice; type: in vivo; conditions: for Follicle width / Number of hair follicles per section (hypodermal): individual mice and Mean; for skin inflammation, result in words: AA mice, oral daily servings (systemic exposure)
Experimental: A 1 cm^2 area of skin was excised from the right dorsal surface and fixed in 10% neutral buffered formalin for 24 h before processing and embedding in paraffin wax according to standard procedures. Vertical sectioning was chosen to allow for optimal detection of inflammatory cells whilst enabling follicular counts. 3 μm longitudinal sections were cut and stained with haematoxylin and eosin for histopathological analysis. Skin sections were scanned using an Aperio Scanscope. CD8 and NKG2D in situ hybridization (ISH) was carried out using the RNAScope technique[48] according to the manufacturer's protocols. Briefly, tissue sections were deparaffinised and incubated with epitope retrieval solution 2 for 15 min at 88°C followed by ACD protease for 10 min before hybridization with probe Mm‐Klrk1 (ACD, Cat.No.430808) and probe Mm‐Cd8a‐C2 (ACD, Cat.No. 401688‐C2) or duplex negative control probes Mm‐DapB (ACD, Cat.No. 320758). Bound probe was visualized following amplification with RNAScope 2.5 LS Duplex Reagent Kit‐(RED/BROWN) (ACD Cat.No. 322440). Staining was visualized by light microscopy. Number of hair follicles and hair follicle width were analyzed using ImageJ software edition ImageJ2. Images were imported using the bio‐format importer plug in. The number of follicles were counted using the cell counter plugin. All follicles on all sections in the dermal fat layer were counted. Follicle width was calculated with use of the circle tool to capture follicle area and from it calculate the width. All follicles on all sections in the dermal fat layer were included in the width analysis.

IL‐13, STAT6‐Luc = assay: IL-13-induced JAK-STAT6-luciferase assay in U937 monocytes; type: cell-based; conditions: Homo sapiens, U-937, interleukin at EC80
[7] = Unbound fraction in tissue from rearranged Gillette equation; type: in vitro ADME, mouse; conditions: for f u, tissue: mouse, from rearranged Gillette equation, V blood 0.07 L/kg, V tissue 0.6 L/kg
Excerpt: as §1

[8] = 8w off Tx (4 weeks oral treatment, then 8 weeks off)
[9] = 8w off Tx (4 weeks oral treatment, then 8 weeks off), mean
[10] = Systemic JAK1i, after 4 weeks oral treatment
[11] = Systemic JAK1i, after 4 weeks oral treatment, mean
[12] = topical cream application (local)

Structure (SMILES): Cc1cnc(Nc2cccnc2F)nc1-c1c[nH]c2c(NC(=O)[C@@H](C)N3CCN(C)CC3)cccc12 [Cmpd A]
- logD (LogD7.4): 2.9
- IC50 (IL‐4, STAT6‐Luc): 84 nM
- CD8a expression in skin, fold change (log2) from AA ([1]; 8w off Tx): -0.32 ± 0.45 (0.97, n=6) log2 fold change
- CXCL9 expression in skin, fold change (log2) from AA ([1]; 8w off Tx): -0.33 ± 0.73 (0.96, n=6) log2 fold change
- CXCL10 expression in skin, fold change (log2) from AA ([1]; 8w off Tx): -0.32 ± 0.61 (0.97, n=6) log2 fold change
- CXCL11 expression in skin, fold change (log2) from AA ([1]; 8w off Tx): 0.43 ± 0.73 (0.93, n=6) log2 fold change
- GZMB expression in skin, fold change (log2) from AA ([1]; 8w off Tx): -0.81 ± 0.73 (0.099, n=3) log2 fold change
- ICOS expression in skin, fold change (log2) from AA ([1]; 8w off Tx): -0.05 ± 0.09 (0.34, n=2) log2 fold change
- Krt32 expression in skin, fold change (log2) from AA ([1]; 8w off Tx): -1.44 ± 0.98 (0.062, n=6) log2 fold change
- MX1 expression in skin, fold change (log2) from AA ([1]; 8w off Tx): -0.37 ± 0.41 (0.67, n=6) log2 fold change
- STAT1 expression in skin, fold change (log2) from AA ([1]; 8w off Tx): -0.30 ± 0.28 (0.67, n=6) log2 fold change
- CD8a expression in skin, fold change (log2) from AA ([1]; Systemic JAKi (oral, 4 weeks)): -2.56 ± 0.24 (<0.001, n=6) log2 fold change
- CXCL9 expression in skin, fold change (log2) from AA ([1]; Systemic JAKi (oral, 4 weeks)): -3.83 ± 0.47 (<0.001, n=6) log2 fold change
- CXCL10 expression in skin, fold change (log2) from AA ([1]; Systemic JAKi (oral, 4 weeks)): -3.28 ± 0.42 (<0.001, n=5) log2 fold change
- CXCL11 expression in skin, fold change (log2) from AA ([1]; Systemic JAKi (oral, 4 weeks)): -4.32 ± 0.36 (<0.001, n=5) log2 fold change
- ICOS expression in skin, fold change (log2) from AA ([1]; Systemic JAKi (oral, 4 weeks)): -1.05 ± 0.12 (0.0083, n=4) log2 fold change
- Krt32 expression in skin, fold change (log2) from AA ([1]; Systemic JAKi (oral, 4 weeks)): -3.16 ± 0.13 (<0.001, n=6) log2 fold change
- MX1 expression in skin, fold change (log2) from AA ([1]; Systemic JAKi (oral, 4 weeks)): -3.71 ± 0.21 (<0.001, n=6) log2 fold change
- STAT1 expression in skin, fold change (log2) from AA ([1]; Systemic JAKi (oral, 4 weeks)): -2.29 ± 0.25 (<0.001, n=6) log2 fold change
- solubility [2]: > 337 µM
- f u, plasma [3]: 0.038
- IC50 (JAK2): 18000 nM
- efflux ratio [4]: 1
- Papp A→B [4]: 21 ×10⁻⁶ cm/s
- estimated average free exposure in plasma over IC50 ([5]; oral daily servings (systemic)): 1.2 fold IC50
- estimated average free exposure in skin over IC50 ([5]; oral daily servings (systemic)): 0.1 fold IC50
- Follicle width [6, 8]: 36 μm and 26 μm and 38 μm and 31 μm and 35 μm
- Number of hair follicles per section (hypodermal) [6, 8]: 51 and 595 and 35 and 9 and 44 and 48
- Follicle width [6, 9]: 32 μm
- Number of hair follicles per section (hypodermal) [6, 9]: 130
- skin inflammation, result in words [6]: resolution of inflammation in the skin
- Follicle width [6, 10]: 28 μm and 26 μm and 29 μm and 25 μm
- Number of hair follicles per section (hypodermal) [6, 10]: 150 and 542 and 263 and 363 and 20 and 288
- Follicle width [6, 11]: 27 μm
- Number of hair follicles per section (hypodermal) [6, 11]: 271
- IC50 (IL‐13, STAT6‐Luc): 120 nM
- f u, tissue [7]: 0.003
- unbound fraction in plasma compared to skin ([7]; skin value estimated from the Gillette equation): ~10 fold

Structure (SMILES): Cc1cnc(Nc2cc(N3C[C@@H]4C[C@H]3CN4C)cnc2F)nc1N[C@H](C)[C@H](C)CO [Cmpd B, (2S,3R)-3-{[2-({2-fluoro-5-[(1S,4S)-5-methyl-2,5-diazabicyclo[2.2.1]heptan-2-yl]pyridin-3-yl}amino)-5-methylpyrimidin-4-yl]amino}-2-methylbutan-1-ol]
- logD (LogD7.4): 1.5
- IC50 (IL‐4, STAT6‐Luc): 110 nM
- CD8a expression in skin, fold change (log2) from AA ([1]; Local JAK1i (treated side)): 1.06 ± 0.63 (0.245, n=6) log2 fold change
- CXCL9 expression in skin, fold change (log2) from AA ([1]; Local JAK1i (treated side)): 0.60 ± 0.50 (0.69, n=6) log2 fold change
- CXCL10 expression in skin, fold change (log2) from AA ([1]; Local JAK1i (treated side)): 0.23 ± 0.49 (0.99, n=6) log2 fold change
- CXCL11 expression in skin, fold change (log2) from AA ([1]; Local JAK1i (treated side)): 0.06 ± 0.63 (0.99, n=6) log2 fold change
- GZMB expression in skin, fold change (log2) from AA ([1]; Local JAK1i (treated side)): 0.93 ± 0.35 (0.45, n=5) log2 fold change
- ICOS expression in skin, fold change (log2) from AA ([1]; Local JAK1i (treated side)): 1.33 ± 0.18 (<0.001, n=4) log2 fold change
- Krt32 expression in skin, fold change (log2) from AA ([1]; Local JAK1i (treated side)): -0.81 ± 0.70 (0.49, n=6) log2 fold change
- MX1 expression in skin, fold change (log2) from AA ([1]; Local JAK1i (treated side)): 0.03 ± 0.38 (0.99, n=6) log2 fold change
- STAT1 expression in skin, fold change (log2) from AA ([1]; Local JAK1i (treated side)): 1.09 ± 0.29 (<0.001, n=6) log2 fold change
- CD8a expression in skin, fold change (log2) from AA ([1]; Local JAK1i (untreated side)): 1.02 ± 0.71 (0.80, n=6) log2 fold change
- CXCL9 expression in skin, fold change (log2) from AA ([1]; Local JAK1i (untreated side)): 0.82 ± 0.65 (0.41, n=6) log2 fold change
- CXCL10 expression in skin, fold change (log2) from AA ([1]; Local JAK1i (untreated side)): -0.03 ± 0.74 (0.99, n=6) log2 fold change
- CXCL11 expression in skin, fold change (log2) from AA ([1]; Local JAK1i (untreated side)): 0.08 ± 0.76 (0.99, n=6) log2 fold change
- GZMB expression in skin, fold change (log2) from AA ([1]; Local JAK1i (untreated side)): 0.77 ± 0.37 (0.64, n=5) log2 fold change
- ICOS expression in skin, fold change (log2) from AA ([1]; Local JAK1i (untreated side)): 1.06 ± 0.29 (0.0018, n=5) log2 fold change
- Krt32 expression in skin, fold change (log2) from AA ([1]; Local JAK1i (untreated side)): -0.64 ± 0.71 (0.70, n=6) log2 fold change
- MX1 expression in skin, fold change (log2) from AA ([1]; Local JAK1i (untreated side)): 0.02 ± 0.41 (0.99, n=6) log2 fold change
- STAT1 expression in skin, fold change (log2) from AA ([1]; Local JAK1i (untreated side)): 1.07 ± 0.29 (<0.001, n=6) log2 fold change
- solubility [2]: > 955 µM
- f u, plasma [3]: 0.74
- IC50 (JAK2): > 30000 nM
- efflux ratio [4]: 14
- Papp A→B [4]: 0.3 ×10⁻⁶ cm/s
- estimated average free exposure in plasma over IC50 [5, 12]: 0.02 fold IC50
- estimated average free exposure in skin over IC50 [5, 12]: 1.9 fold IC50
- IC50 (IL‐13, STAT6‐Luc): 100 nM
- f u, tissue [7]: 0.063

Structure (SMILES): COCC(C(=O)Nc1cccc2c(-c3nc(Nc4cccc(S(C)(=O)=O)c4F)ncc3F)c[nH]c12)N1CCN(C)CC1 (centres unmarked) [Cmpd C]
- logD (LogD7.4): 2.6
- IC50 (IL‐4, STAT6‐Luc): 24 nM
- solubility [2]: 6.6 µM (≈ 3.96 µg/mL)
- f u, plasma [3]: 0.11
- Papp A→B [4]: 6.7 ×10⁻⁶ cm/s
- skin inflammation, result in words [6]: resolved inflammation
- f u, tissue [7]: 0.011
